From patent publication US12612395B2, “Rocaglate derivatives and uses thereof” (TRUSTEES OF BOSTON UNIVERSITY, priority 2023, dated 2026)
“Also recorded” adds a separate entry of the source.

What was measured:
[1] = biological target: eIF4A1:FAM-labeled poly r(AG)8 (Homo sapiens, UniProt P60842); assay: Fluorescence polarization (FP) RNA clamping assay, eIF4A1; assay type: binding; conditions: compound 10 μM, 1 mM ATP
Description: Given these observations, the inventors next sought to interrogate the effects of compound (−)-20 in secondary assays for both eIF4A and DDX3 engagement. […] While inherent differences between the FP assay conditions (e.g. probe affinity, protein mobility in FP buffer) preclude direct comparison of absolute AmP values across the two different proteins, the inventors noted that relative anti-CSC potencies for these compounds ((−)-7>(−)-5≈(−)-20) were similar to their relative degrees of clamping for DDX3X and eIF4A1. To follow up on these findings, the inventors performed in vitro translation experiments using a bicistronic mRNA reporter construct FF-HCV-Ren, where translation of the firefly luciferase (FF) cistron is cap-dependent, while translation of the Renilla luciferase (HCV-Ren) cistron is driven off an HCV-IRES, rendering translation of this cistron cap-independent.
Fluorescence Polarization (FP) Assays: Recombinant DDX3X or eIF4A1 (1.5 μM) were incubated with 10 nM FAM-labelled RNA probe and test compounds for 10 min in FP buffer (14.4 mM HEPES-KOH (pH 8), 108 mM NaCl, 1 mM MgCl2, 14.4% glycerol, 0.1% DMSO, 2 mM DTT, 1 mM ATP) at room temperature in black, low-volume 384 well plates (Corning 3820). FP readings were performed using a Pherastar FS microplate reader (BMG Labtech). Compounds were tested at a final concentration of 10 μM.^S9 For ADP+Pi conditions, ATP was substituted with 1 mM ADP and 1 mM Na2HPO4. To assess potency of complex formation, proteins were titrated in the presence of 10 nM probe, 50 μM compounds and 1 mM ATP. Experiments were run in three replicates, with each replicate employing the same master mix of protein, probe and buffer split across the four test conditions (DMSO+three test compounds). […] Data was analyzed using GraphPad Prism 8.4.0, with a “[Agonist] vs. normalized response” nonlinear regression model used to determine the EC50 for stimulation of helicase-RNA probe binding in the presence of test compound.

[2] = test system: eIF4A paralogs (eIF4A1); assay: PISA assay in GBM0308 cell lysates, eIF4A; assay type: binding, human; conditions: GBM0308 lysate, compound 10 μM, AMP-PNP and (AG)8 RNA added
Description: Derivatization-free target identification using a modified proteome integral solubility alteration (PISA) assay. The inventors next pursued proteome-wide target identification to better understand the target profiles of CSC-selective rocaglates. To enable cross-compound comparisons of target engagement, the inventors opted to use the Proteome Integral Solubility Alteration (PISA) assay,^29 a derivative of the mass spectrometry-based Cellular Thermal Shift Assay (MS-CETSA). In MS-CETSA,^30,31 target engagement is inferred through proteome-wide analysis of compound-induced changes to protein thermal stability; proteins with a shift in their half-maximal thermal denaturation temperature upon compound treatment are flagged as potential targets. The PISA assay obviates the need for MS-CETSA-derived thermal denaturation curves through curve integration by pooling of individual temperature points into a single “integral” sample for each treatment condition, thereby increasing throughput (FIG. 9). In contrast to MS-CETSA (which relies on curve comparisons), PISA determinations are performed by simply comparing soluble protein abundance levels between compound- and DMSO-treated samples. Importantly, protein fold-change measurements in PISA experiments generally scale with the thermal shift derived from CETSA experiments, and the magnitude of a thermal shift can inform on relative affinity between compounds and individual targets.^30,32-25 Maximal stability changes are protein-specific,^36 however, precluding estimations of preference for one target over another. Thus, PISA allows for simultaneous target profiling and comparisons of binding affinity between different compounds within a given target.
Of note, we also detected stabilization of DDX3Y, a paralog which shares >90% sequence similarity with DDX3X.
PISA assay in GBM0308 cell lysates: The PISA assay was performed in lysates as described by Gaetani and coworkers^S2 with slight modification. Pelleted GBM0308 cells were resuspended in ice-cold lysis buffer (1×PBS pH 7.4, 2 mM MgCl2, 0.5 mM AMP-PNP, 1 μM (AG)8 RNA, HALT protease inhibitor cocktail EDTA-free) and subjected to three freeze-thaw cycles with liquid nitrogen to extract lysate proteins. Thawing was performed at room temperature until ˜80% thawed, then completed on ice. Lysate was clarified by centrifugation for 10 minutes at 20,000 RCF and 4° C., transferred to a fresh Eppendorf tube, then centrifuged again for 10 minutes at 20,000 RCF and 4° C. to ensure removal of debris. Lysate concentration was determined using a Pierce BCA Protein Assay Kit and adjusted to 2.0 mg/mL in lysis buffer. Lysate was mixed 1:1 with a 2× solution of test compound or DMSO in lysis buffer, gently aspirated to ensure proper mixing, and incubated at room temperature for 10 minutes. […]

Sequence of eIF4A1:FAM-labeled poly r(AG)8 (P60842 whole entry, species assumed): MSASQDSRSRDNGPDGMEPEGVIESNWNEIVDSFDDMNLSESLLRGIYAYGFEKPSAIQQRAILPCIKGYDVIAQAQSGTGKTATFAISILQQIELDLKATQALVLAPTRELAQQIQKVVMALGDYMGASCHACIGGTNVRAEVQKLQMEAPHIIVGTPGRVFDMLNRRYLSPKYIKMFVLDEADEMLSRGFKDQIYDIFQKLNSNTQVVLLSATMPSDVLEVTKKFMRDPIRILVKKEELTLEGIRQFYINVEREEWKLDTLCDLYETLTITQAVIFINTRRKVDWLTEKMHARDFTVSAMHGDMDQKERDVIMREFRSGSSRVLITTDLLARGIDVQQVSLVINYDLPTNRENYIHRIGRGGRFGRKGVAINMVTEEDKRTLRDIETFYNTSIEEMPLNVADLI

SMILES | stimulation of eIF4A1 binding to RNA (change in polarization), in words [1] | thermal stabilization of eIF4A paralogs (PISA), in words [2]
COc1cc(OC)c2c(c1)O[C@@]1(c3ccc(Br)cc3)[C@H](c3ccccc3)[C@@H](C(=O)NS(=O)(=O)N(C)C)[C@@H](O)[C@@]21O [(−)-20, (1R,2R,3S,3aR,8bS)-3a-(4-bromophenyl)-N—(N,N-dimethylsulfamoyl)-1,8b-dihydroxy-6,8-dimethoxy-3-phenyl-2,3,3a,8b-tetrahydro-1H-cyclopenta[b]benzofuran-2-carboxamide] | strongly stimulated | stabilized
CONC(=O)[C@H]1[C@@H](O)[C@@]2(O)c3c(OC)cc(OC)cc3O[C@@]2(c2ccc(Br)cc2)[C@@H]1c1ccccc1 [(−)-7, SDS-1-021] | strongly stimulated; also recorded: strongest clamping | stabilized
CONC(=O)[C@H]1[C@@H](O)[C@@]2(O)c3c(OC)cc(OC)cc3O[C@@]2(c2ccc(OC)cc2)[C@@H]1c1ccccc1 [(−)-5, CR-1-31b, reference compound] | strongly stimulated | stabilization
